Measured values published in patent publication US7714014B2, “Targeting GLI proteins in human cancer by small molecules” (The Regents of the University of California, priority 2005, dated 2010).

What was measured:
211H (mesothelioma) = assay: Apoptosis analysis (Annexin V FITC, flow cytometry); type: cell-based, human; details: 3 days
Method: (§1) Apoptosis was analyzed by using an Annexin V FITC Apoptosis Detection Kit (Biosource, Camarillo, Calif.), according to the manufacturer's protocol. After treatment with different small molecule compounds at various concentrations for about 3 days, cells were harvested by trypsinization, stained and immediately analyzed by flow cytometry (FACScan; Decton Dickinson, Franklin Lake, N.J.). Early apoptotic cells with exposed phosphatidylserine but intact cell membranes will bind to Annexin V-FITC, but not propidium iodide (PI). Cells in necrotic or late apoptotic stages will be labeled with both Annexin V-FITC and PI. “% apoptotic cells” or “% apoptosis” refers to the combined early and late apoptotic cells.
Flow cytometry was used to examine apoptosis in the mesothelioma cell line 211H after treatment of cells with small molecule compounds FN1-5 and FN1-8.

[1] = tested on: BxPC3 (pancreatic cancer); assay: as above; type: cell-based, human; details: 3 days
Method: as §1
(§2) Flow cytometry was also used to examine apoptosis induced by molecule compounds FN1-5 and FN1-8 in the human pancreatic cancer cell lines L3.6sl, Panc4.21, BxPC3, and CFPAC-1 cells. […] For example, app.

[2] = tested on: CFPAC-1 (pancreatic cancer); assay: as above; type: cell-based, human; details: 3 days
Method: as §1, §2

[3] = tested on: L3.6s1 (pancreatic cancer); assay: as above; type: cell-based, human; details: 3 days
Method: as §1, §2

[4] = tested on: Panc4.21 (pancreatic cancer); assay: as above; type: cell-based, human; details: 3 days
Method: as §1, §2

[5] = tested on: NSCLC cell lines H460, H838, H1975, H1650, and H1703; assay: Cell survival assay (crystal violet); type: cell-based, human; details: for cell killing: data not shown
Method: (§3) Typically, the small molecule compounds of the present invention were dissolved in DMSO at a concentration of 30 mM. The small molecule compounds were then tested under cell culture conditions at different concentrations ranging from 0, 10, 30, 50, to 100 uM. To determine cell survival after treatment, the cells were incubated with the small molecule compounds in 6-well plates for about 3 days. After removal of the cell culture medium, 1-ml of 0.5% crystal violet solution (prepared in 20% ethanol and 20% methanol) was added to stain the cells for 5 min. Then the crystal violet solution was rinsed clean with tap water. Cell survival was estimated based on the density of crystal stained plates.

[6] = tested on: colon cancer cell line HT29; assay: Cell survival assay (crystal violet); type: cell-based, human; details: FN1-8 even at higher doses (50 μM), data not shown
Method: as §3

[7] = tested on: human sarcoma cell lines MG63 and MNNG; assay: Cell survival assay (crystal violet); type: cell-based; details: FN1-8 at 50 μM; 10, 30 and 50 μM tested
Method: as §3
The cell-based cytotoxicity assay described herein was used to determine the effect of small molecule compounds FN1-5 and FN1-8 in the human sarcoma cell lines MG63 and MNNG. Viability of these cells was analyzed after treatment with 10, 30 and 50 μM FN1-5 or FN1-8.

normal human renal cells = assay: Cell survival assay (crystal violet); type: cell-based; details: FN1-5 30 and 50 μM; FN1-8 10, 30, and 50 μM; 3 days
Method: as §3
The cell killing effect of small molecule compounds FN1-5, and FN1-8 at different doses was examined in normal human renal cells. Normal renal cells were plated in 6-well plates and incubated with 30 and 50 μM of compound FN1-5 and 10, 30, and 50 μM FN1-8 for 3 days, in the same manner as described herein for similar other experiments.

[8] = tested on: hedgehog pathway in HT29 cells; assay: Semi-quantitative RT-PCR of Hedgehog pathway genes; type: cell-based, human; details: data not shown
Method: Total RNA from cell lines or tissue samples was isolated using Qiagen RNeasy Mini Kit (Valencia, Calif.). RT-PCR was performed in GeneAmp PCR system 2700 (Applied Biosystems, Foster City, Calif.) using One-step RT-PCR Kit from Invitrogen Life Technologies (Carlsbad, Calif.). Primers for RT-PCR were obtained from Operon Technologies Inc. (Alameda, Calif.). Primer sequences for amplifying different genes in Hedgehog and Wnt signaling pathways are listed in the table below (Table 1; F, forward primer; R, reverse primer). The expected size of the PCR product is indicated for each primer pair. GAPDH was used as internal control.

[9] = tested on: SW480 cells transfected with empty pCDNA3 vector or Gli2 cDNA expression construct; assay: GLI2 over-expression rescue experiment; type: cell-based, human; details: 5 days
Method: For transient transfection experiments, cells (2×10^5) were plated in six-well plates using growth medium without antibiotics 24 hrs before transfection. Lipofectamine™ 2000 (Invitrogen Life Technologies; Carlsbad, Calif.) was used to mediate transfection using 2.0 μg of cDNA in pCDNA3 vector or 2.0 μg empty pCDNA3 vector as control, according to the manufacturer's protocol. Then the transfected cells were cultured at 37° C. in a humid incubator with 5% CO2 until they were ready for analysis. Gli2 cDNA was kindly provided by Dr. Fritz Aberger at University of Salzburg (Salzburg, Austria). Gli1 and Gli3 cDNA were kindly provided by Dr. Bert Vogelstein and Dr. Kenneth W. Kinzler at the Sidney Kimmel Comprehensive Cancer Center of the Johns Hopkins University (Baltimore, Md.). TAFIII31 cDNA was kindly provided by Dr. Gregory L. Verdine at Harvard University (Cambridge, Mass.).
As described herein, GLI3 seems to activate transcription of Gli1 and Gli2 genes. […] If so, then transfecting a GLI1 and/or GLI2 expression construct into a cell treated with a small molecule compound of the present invention, should lead to at least a partial rescue of the apoptotic effect mediated by the small molecule compound. Thus, to further examine the specificity of the small molecule compound FN1-5, as well as its inhibitory mechanisms, it was tested whether over-expressing GLI2 protein could attenuate the cell killing effect of FN1-5. In this experiment, the colon cancer cell line SW480 was transfected with either empty pCDNA3 vector or with a Gli2 cDNA expression construct. After selection, the transfected cells were re-plated in 6-well plates at same numbers, and then FN1-5 was added into medium at a final concentration of 50 μM.
To further examine the specificity of the small molecule compound FN1-8, as well as its inhibitory mechanisms, we tested whether over-expressing GLI2 protein could attenuate the cell killing effect of FN1-8. The transfection experiment was performed as described above. After 5 days, apoptosis analysis using flow cytometry was performed to quantify the experiment.

Row | SMILES | % of apoptotic cells (211H (mesothelioma); 10 μM) | % of apoptotic cells (211H (mesothelioma); 30 μM) | % of apoptotic cells ([1]; BxPC3, 30 μM) | % of apoptotic cells ([1]; BxPC3, 50 μM) | % of apoptotic cells ([2]; CFPAC-1, 30 μM) | % of apoptotic cells ([2]; CFPAC-1, 50 μM) | % of apoptotic cells ([3]; L3.6s1, 30 μM) | % of apoptotic cells ([3]; L3.6s1, 50 μM) | % of apoptotic cells ([4]; Panc4.21, 30 μM) | % of apoptotic cells ([4]; Panc4.21, 50 μM) | cell killing [5] | cell killing [6] | cell killing [7] | cell killing effect in normal cells (normal human renal cells) | modulation of hedgehog pathway (RT-PCR) [8] | also measured
1 | O=C(NCCCCCO)C1C(c2ccccc2)=NN(c2ccccc2)C1c1ccccc1 (stereo not drawn) [FN1-5, N-(5-Hydroxypentyl)-1,3,5-triphenyl-4,5-dihydro-pyrazole-4-carboxyamide] | 7.7% | 37.5% | 11.2% | 30.0% | 17.4% | 30.6% | 27.5% | 44.8% | 9.3% | 10.3% | dramatic cell killing | dramatic cell killing | No significant cell killing | No noticeable cell killing effect | no noticeable changes | apoptosis induction ([4]; Panc4.21, 30 and 50 μM): did not seem to induce apoptosis; cell killing, Gli2-transfected versus empty vector cells ([9]; 50 μM): kill less cells transfected with Gli2 than those with empty vector
2 | O=C(NCCc1ccc(O)cc1)C1C(c2ccccc2)=NN(c2ccccc2)C1c1ccccc1 (stereo not drawn) [FN1-8, N-(2-(4-Hydroxyphenyl)ethyl)-1,3,5-triphenyl-4,5-dihydro-pyrazole-4-carboxyamide] | 5.6% | 30.7% | 20.4% | 77.4% | 15.0% | 19.8% | 25.1% | 45.7% | 10.6% | 23.4% | dramatic cell killing | no cell killing | dramatic cell killing | No noticeable cell killing effect | no noticeable changes | % of apoptotic cells ([1]; BxPC3, 10 μM): 11.4%; % of apoptotic cells ([2]; CFPAC-1, 10 μM): 15.4%; % of apoptotic cells ([3]; L3.6s1, 10 μM): 12.8%; % of apoptotic cells ([4]; Panc4.21, 10 μM): 11.2%; cell killing potency compared with FN1-5 ([5]; same concentrations): more potent than FN1-5; apoptotic cells ([9]; SW480 transfected with empty vector): 48.1%; apoptotic cells ([9]; SW480 transfected with the Gli2 expression construct): 27.7%
